Assay [1] concerns MCF7. Kind of assay: Cell cycle arrest in MCF7 cells assessed as accumulation at G0/G1 phase at 200 uM after 72 hrs by flow cytometry. The assay is classed as functional, Homo sapiens. On the technique in general: In flow cytometry, cells or beads pass a laser one at a time.
For assay [2], the system named is MCF7. Kind of assay: Cell cycle arrest in MCF7 cells assessed as accumulation at G2/M phase at 200 uM after 48 hrs by flow cytometry. The format is functional, Homo sapiens.
Assay [3] has as its system MCF7. Kind of assay: Cell cycle arrest in MCF7 cells assessed as accumulation at S phase at 200 uM after 72 hrs by flow cytometry. The assay is classed as functional, Homo sapiens.
Assay [4] has as its system MCF7. Kind of assay: Cell cycle arrest in MCF7 cells assessed as accumulation at subG1 phase at 200 uM after 48 hrs by flow cytometry. The assay is classed as functional, Homo sapiens.
Assay [5] has as its system MCF7. Kind of assay: Cell cycle arrest in MCF7 cells assessed as accumulation at subG1 phase at 200 uM after 72 hrs by flow cytometry. The assay is classed as functional, Homo sapiens.
Assay [6] deals with MCF7. Kind of assay: Cell cycle arrest in MCF7 cells assessed as accumulation at S phase at 200 uM after 48 hrs by flow cytometry. The format is functional, Homo sapiens.
The subject of assay [7] is MCF7. Kind of assay: Cytotoxicity against MCF7 cells assessed as cell viability at 200 uM after 72 hrs by MTT assay. The format is functional. The note with it: Homo sapiens, MCF7, 72 h; read-out: Activity. (Tetrazolium assays rely on reduction of a dye to a coloured formazan, in cell work by metabolically active cells.)
The test system of assay [8] is MCF7. Kind of assay: Cell cycle arrest in MCF7 cells assessed as accumulation at G2/M phase at 200 uM after 72 hrs by flow cytometry. The format is functional, Homo sapiens.
Assay [9] relates to MCF7. Kind of assay: Cell cycle arrest in MCF7 cells assessed as accumulation at G0/G1 phase at 200 uM after 48 hrs by flow cytometry. The assay is classed as functional, Homo sapiens.
Assay [10] concerns MCF7. Kind of assay: Decrease in cdk4 protein level in MCF7 cells at 200 uM after 18 hrs. The note with it: Homo sapiens. The assay is classed as functional, cell-based.
The test system of assay [11] is MCF7. Kind of assay: Decrease in Raf1 expression in MCF7 cells at 200 uM after 18 hrs. The assay is classed as functional, cell-based. Particulars: Homo sapiens.
The test system of assay [12] is MELN. Kind of assay: Inhibition of basal ER-mediated transcription activity in MELN cells by measuring luciferase activity at 2 uM after 18 hrs. The format is functional, cell-based. Particulars: Homo sapiens.
In assay [13] the test system is MELN. Kind of assay: Inhibition of estradiol-induced ER-mediated transcription in MELN cells by measuring luciferase activity at 2 uM after 18 hrs. The assay is classed as functional, cell-based. The note with it: Homo sapiens.
Assay [14] relates to MELN. Kind of assay: Inhibition of estradiol-induced ER-mediated transcription in MELN cells by measuring luciferase activity at 200 uM after 18 hrs. The assay is classed as functional, cell-based. Particulars: Homo sapiens.
For assay [15], the system named is MCF7. Kind of assay: Growth inhibition of MCF7 cells after 72 hrs by MTT assay. The format is functional, cell-based. The note with it: Homo sapiens, MCF7, 72 h.
For assay [16], the system named is MCF7. Kind of assay: Decrease in HER2 expression in MCF7 cells at 200 uM after 18 hrs. The assay is classed as functional, cell-based. The note with it: Homo sapiens.

The text below walks through data of ChEMBL document CHEMBL1138304, “New novobiocin analogues as antiproliferative agents in breast cancer cells and potential inhibitors of heat shock protein 90” (J Med Chem, 2007).

The source made the active and inactive calls. The calls are words filed in the database; no cut-off is given here.

Turning to `COc1ccc2c(O)c(NC(=O)c3ccc4c(c3)CCC(C)(C)O4)c(=O)oc2c1C`, the Activity in the assay on MCF7 [1] turned out to be 85.4%; in the assay with MCF7 [2], 10.7%; in the assay on MCF7 [3] it was 8.5%; in the assay with MCF7 [4], 3.3%; with MCF7 [5], 2.5%; in the assay on MCF7 [6], 16.2%. In addition, the Activity in the assay with MCF7 [8] turned out to be 6.5%; in the assay on MCF7 [9], 71.9%. Further, the viability at 200 µM in the assay with MCF7 [7] was 75%.
On to `COc1ccc(-c2c(NC(=O)c3ccc4c(c3)CCC(C)(C)O4)c(=O)oc3c(C)c(OC)ccc23)cc1`, for which the Activity in the assay on MCF7 [1] is reported as 81.3%; in the assay on MCF7 [2], 11.5%; in the assay with MCF7 [3], 9.5%; in the assay on MCF7 [4] it was 3.7%; in the assay on MCF7 [5] it was 4%; in the assay with MCF7 [6], 15.3%. The Activity in the assay on MCF7 [8] was 7.7%; with MCF7 [9] it was 71%.
As for `Cc1c(O)ccc2c(O)c(NC(=O)c3ccc4c(c3)CCC(C)(C)O4)c(=O)oc12` [CYCLONOVOBIOCIC ACID], the Activity in the assay on MCF7 [1] is 58.1%; in the assay on MCF7 [2], 14.4%; with MCF7 [3], 23.4%; in the assay with MCF7 [4], 7.7%; in the assay on MCF7 [5], 6%; in the assay on MCF7 [6], 36.2%. Besides, the Activity is 18.6% in the assay with MCF7 [8] and 46.5% in the assay on MCF7 [9]. Moreover, the result in the assay on MCF7 [10] was Active. Moreover, the viability at 200 µM with MCF7 [7] turned out to be 75%.
As for `Cc1ccc(S(=O)(=O)Oc2ccc3c(-c4ccc(Cl)cc4)c(NC(=O)c4ccc5c(c4)CCC(C)(C)O5)c(=O)oc3c2C)cc1`, the Activity was determined as 74.1% in the assay on MCF7 [1]; 9.9% with MCF7 [2]; 17.1% in the assay with MCF7 [3]; 3.8% in the assay on MCF7 [4]; 4.9% in the assay with MCF7 [5]; 19.7% with MCF7 [6]. The Activity came to 7.5% in the assay with MCF7 [8] and 70.4% with MCF7 [9]. Moreover, the outcome in the assay with MCF7 [11] was Active.
`CC1(C)[C@@H](O)CC[C@]2(C)[C@H]3C(=O)C=C4[C@@H]5C[C@@](C)(C(=O)O)CC[C@]5(C)CC[C@@]4(C)[C@]3(C)CC[C@@H]12`: the result in the assay with MELN [12] and in the assay with MELN [13] was Active.
Take `COc1ccc2c(OC)c(NC(=O)c3ccc4c(c3)CCC(C)(C)O4)c(=O)oc2c1C`: the Activity in the assay with MCF7 [1] worked out at 77.8%; with MCF7 [2] it was 11.9%; with MCF7 [3], 14.8%; with MCF7 [4] it was 7.5%; in the assay with MCF7 [5], 3.8%; in the assay with MCF7 [6] it was 28.4%. For the same compound, the Activity in the assay on MCF7 [8] was found to be 7.2%; in the assay on MCF7 [9], 56.7%. The viability at 200 µM in the assay with MCF7 [7] is 75%.
One may read the IC50 as the midpoint of a concentration-inhibition curve. Turning to `CO[C@@H]1[C@@H](OC(N)=O)[C@@H](O)[C@H](Oc2ccc3c(O)c(NC(=O)c4ccc(O)c(CC=C(C)C)c4)c(=O)oc3c2C)OC1(C)C` [NOVOBIOCIN], the result in the assay on MELN [14] was Active. The Activity with MCF7 [1] turned out to be 58.3%; with MCF7 [2], 19.3%; in the assay on MCF7 [3], 21.3%; with MCF7 [4] it was 5.9%; in the assay with MCF7 [5] it was 9.8%; in the assay with MCF7 [6] it was 19.7%. Further, the Activity in the assay on MCF7 [8] is 19.3%; in the assay with MCF7 [9], 59.9%. In the assay with MCF7 [15], this compound had an IC50 of 260 µM.
As to `COc1ccc(C(=O)Nc2c(OC)c3ccc(OC)c(C)c3oc2=O)cc1CC=C(C)C`, the Activity turned out to be 82.1% with MCF7 [1]; 10.8% with MCF7 [2]; 10.2% with MCF7 [3]; 3.6% with MCF7 [4]; 3.8% with MCF7 [5]; 14.4% in the assay with MCF7 [6]. Further, the Activity is listed as 6.9% in the assay with MCF7 [8] and 73.3% in the assay with MCF7 [9]. Also, in the assay on MCF7 [16], the result was Active.
